In paper PMC4331254 (European journal of pharmacology, 2015):
Read-outs that look alike come from different tables or passages of the source.

Legend:
[1] = target: κ opioid receptor (Homo sapiens, UniProt P41145); experiment: Binding selectivity screening, κ opioid receptor; conditions: read-out: % inhibition (10nM)
[2] = target: alpha 2B (Homo sapiens, UniProt P18089); experiment: Binding selectivity screening, alpha 2B; conditions: read-out: % inhibition (10nM)
[3] = target: 5-HT2C (Homo sapiens, UniProt P28335); experiment: Binding selectivity screening, 5-HT2C; conditions: read-out: % inhibition (10nM)
[4] = target: H3 (Homo sapiens, UniProt Q9Y5N1); experiment: Binding selectivity screening, H3; conditions: read-out: % inhibition (10nM)
Chain of H3 (Q9Y5N1 whole entry): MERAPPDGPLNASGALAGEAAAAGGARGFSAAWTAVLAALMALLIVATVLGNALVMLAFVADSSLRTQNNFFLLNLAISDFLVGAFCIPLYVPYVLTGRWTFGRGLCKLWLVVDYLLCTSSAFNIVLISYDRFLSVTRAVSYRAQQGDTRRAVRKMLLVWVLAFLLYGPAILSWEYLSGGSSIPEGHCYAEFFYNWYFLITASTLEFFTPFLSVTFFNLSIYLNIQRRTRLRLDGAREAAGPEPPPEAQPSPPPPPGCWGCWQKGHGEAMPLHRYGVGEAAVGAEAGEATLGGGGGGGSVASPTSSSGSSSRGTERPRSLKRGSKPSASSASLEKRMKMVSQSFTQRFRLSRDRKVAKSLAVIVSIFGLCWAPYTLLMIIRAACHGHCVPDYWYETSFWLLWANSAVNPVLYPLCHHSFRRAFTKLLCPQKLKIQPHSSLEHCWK

[5] = target: 5-HT1A (Homo sapiens, UniProt P08908); experiment: Binding selectivity screening, 5-HT1A
[6] = target: D5 (Homo sapiens, UniProt P21918); experiment: Binding selectivity screening, D5; conditions: read-out: % inhibition (10nM)
[7] = target: H4 (Homo sapiens, UniProt Q9H3N8); experiment: Binding selectivity screening, H4; conditions: read-out: % inhibition (10nM)
[8] = target: 5-HT5A (Homo sapiens, UniProt P47898); experiment: Binding selectivity screening, 5-HT5A; conditions: read-out: % inhibition (10nM)
Chain of 5-HT5A (P47898 whole entry): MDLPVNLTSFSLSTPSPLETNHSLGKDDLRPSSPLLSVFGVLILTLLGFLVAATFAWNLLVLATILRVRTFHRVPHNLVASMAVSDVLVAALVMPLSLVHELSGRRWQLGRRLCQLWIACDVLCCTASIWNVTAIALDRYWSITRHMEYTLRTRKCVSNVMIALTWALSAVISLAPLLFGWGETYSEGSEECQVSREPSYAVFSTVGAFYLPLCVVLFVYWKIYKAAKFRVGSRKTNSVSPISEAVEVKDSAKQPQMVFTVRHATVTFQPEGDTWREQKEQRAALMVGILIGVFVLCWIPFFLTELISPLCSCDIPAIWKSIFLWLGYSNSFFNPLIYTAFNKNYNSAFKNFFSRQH

[9] = target: μ opioid receptor (Homo sapiens, UniProt P35372); experiment: Binding selectivity screening, μ opioid receptor; conditions: read-out: % inhibition (10nM)
[10] = target: 5-HT3 (Homo sapiens, UniProt P46098); experiment: Binding selectivity screening, 5-HT3; conditions: read-out: % inhibition (10nM)
Chain of 5-HT3 (P46098 24-478): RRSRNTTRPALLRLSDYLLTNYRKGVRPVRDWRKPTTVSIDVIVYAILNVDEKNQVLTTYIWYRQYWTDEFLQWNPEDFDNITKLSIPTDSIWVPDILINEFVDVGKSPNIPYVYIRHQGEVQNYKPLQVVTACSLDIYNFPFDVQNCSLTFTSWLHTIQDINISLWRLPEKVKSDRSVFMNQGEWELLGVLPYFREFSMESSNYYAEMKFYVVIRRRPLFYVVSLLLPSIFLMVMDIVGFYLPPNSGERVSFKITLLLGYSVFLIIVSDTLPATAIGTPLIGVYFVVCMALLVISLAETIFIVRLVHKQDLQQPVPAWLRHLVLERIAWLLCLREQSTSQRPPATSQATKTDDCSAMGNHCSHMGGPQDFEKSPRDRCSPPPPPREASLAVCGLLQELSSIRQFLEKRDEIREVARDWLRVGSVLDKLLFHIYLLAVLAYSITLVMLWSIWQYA

[11] = target: D3 (Homo sapiens, UniProt P35462); experiment: Binding selectivity screening, D3; conditions: read-out: % inhibition (10nM)
Chain of D3 (P35462 whole entry): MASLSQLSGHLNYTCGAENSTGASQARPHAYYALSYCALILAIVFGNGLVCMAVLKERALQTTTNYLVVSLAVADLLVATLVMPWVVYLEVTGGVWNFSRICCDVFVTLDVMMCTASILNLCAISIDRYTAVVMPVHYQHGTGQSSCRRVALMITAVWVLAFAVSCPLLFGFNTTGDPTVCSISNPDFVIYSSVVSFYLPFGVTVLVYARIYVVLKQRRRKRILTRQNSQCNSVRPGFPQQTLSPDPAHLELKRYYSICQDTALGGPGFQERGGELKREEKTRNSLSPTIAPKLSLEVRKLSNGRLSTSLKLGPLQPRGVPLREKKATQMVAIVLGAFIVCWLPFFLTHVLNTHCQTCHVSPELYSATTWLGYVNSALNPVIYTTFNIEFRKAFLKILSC

[12] = target: alpha 1D (Homo sapiens, UniProt P25100); experiment: Binding selectivity screening, alpha 1D; conditions: read-out: % inhibition (10nM)
[13] = target: 5-HT1B (Homo sapiens, UniProt P28222); experiment: Binding selectivity screening, 5-HT1B; conditions: read-out: % inhibition (10nM)
Chain of 5-HT1B (P28222 whole entry): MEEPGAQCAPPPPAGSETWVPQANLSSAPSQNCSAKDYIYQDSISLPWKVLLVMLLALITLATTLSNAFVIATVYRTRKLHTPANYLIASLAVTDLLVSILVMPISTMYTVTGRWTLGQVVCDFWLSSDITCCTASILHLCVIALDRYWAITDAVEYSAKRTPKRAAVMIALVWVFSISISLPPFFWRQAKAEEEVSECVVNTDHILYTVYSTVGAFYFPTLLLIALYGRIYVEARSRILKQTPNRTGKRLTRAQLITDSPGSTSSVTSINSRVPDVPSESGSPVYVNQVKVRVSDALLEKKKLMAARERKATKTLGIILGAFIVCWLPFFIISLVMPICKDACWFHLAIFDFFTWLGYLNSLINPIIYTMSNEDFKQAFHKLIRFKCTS

[14] = target: H1 (Homo sapiens, UniProt P35367); experiment: Binding selectivity screening, H1; conditions: read-out: % inhibition (10nM)
[15] = target: M3 (Homo sapiens, UniProt P20309); experiment: biochemical; format: binding; conditions: read-out: % inhibition (10nM)
Chain of M3 (P20309 whole entry): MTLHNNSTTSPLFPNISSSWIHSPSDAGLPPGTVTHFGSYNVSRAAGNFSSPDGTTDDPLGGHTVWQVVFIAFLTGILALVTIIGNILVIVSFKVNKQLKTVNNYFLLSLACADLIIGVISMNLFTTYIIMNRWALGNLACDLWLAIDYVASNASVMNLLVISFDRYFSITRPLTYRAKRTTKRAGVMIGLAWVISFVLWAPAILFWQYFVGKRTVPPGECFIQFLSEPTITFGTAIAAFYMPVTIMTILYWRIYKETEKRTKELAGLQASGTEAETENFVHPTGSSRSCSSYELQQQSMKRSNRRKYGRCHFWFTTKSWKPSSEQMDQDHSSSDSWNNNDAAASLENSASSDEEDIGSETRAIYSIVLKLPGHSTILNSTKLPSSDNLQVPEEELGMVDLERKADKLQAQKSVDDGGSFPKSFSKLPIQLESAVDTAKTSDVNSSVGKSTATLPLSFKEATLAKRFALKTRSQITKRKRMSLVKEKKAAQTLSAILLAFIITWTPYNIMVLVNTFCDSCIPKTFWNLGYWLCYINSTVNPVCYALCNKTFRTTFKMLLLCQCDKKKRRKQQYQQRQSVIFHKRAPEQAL

[16] = target: 5-HT1D (Homo sapiens, UniProt P28221); experiment: Binding selectivity screening, 5-HT1D; conditions: read-out: % inhibition (10nM)
[17] = system: rats discriminating CR4056; conditions: ref Qiu et al., 2014a; cited from earlier work
[18] = target: 5-HT2A (Homo sapiens, UniProt P28223); experiment: Binding selectivity screening, 5-HT2A; conditions: read-out: % inhibition (10nM)
[19] = target: alpha 2A (Homo sapiens, UniProt P08913); experiment: Binding selectivity screening, alpha 2A
Chain of alpha 2A (P08913 whole entry): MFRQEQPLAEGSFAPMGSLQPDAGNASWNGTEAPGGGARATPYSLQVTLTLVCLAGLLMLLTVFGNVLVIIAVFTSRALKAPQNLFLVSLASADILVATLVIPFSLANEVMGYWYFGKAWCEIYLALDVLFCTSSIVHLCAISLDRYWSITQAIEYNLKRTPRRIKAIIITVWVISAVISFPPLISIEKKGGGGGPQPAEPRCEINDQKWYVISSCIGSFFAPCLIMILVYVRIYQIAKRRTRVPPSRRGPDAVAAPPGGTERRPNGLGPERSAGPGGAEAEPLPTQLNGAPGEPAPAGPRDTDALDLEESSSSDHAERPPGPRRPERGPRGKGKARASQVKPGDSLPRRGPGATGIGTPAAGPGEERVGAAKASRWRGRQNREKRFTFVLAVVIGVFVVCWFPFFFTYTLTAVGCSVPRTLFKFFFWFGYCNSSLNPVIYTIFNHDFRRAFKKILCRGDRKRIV

[20] = system: male Sprague-Dawley rats; conditions: for substitution for phenyzoline discriminative stimulus: full ≥ 80%, partial ≥ 60% and < 80% training drug-appropriate responding; for antagonism of the discriminative stimulus effects of phenyzoline: 10-min pretreatment, dose ratio 95% CLs included 1
[21] = target: M2 (Homo sapiens, UniProt P08172); experiment: biochemical; format: binding; conditions: read-out: % inhibition (10nM)
[22] = target: M1 (Homo sapiens, UniProt P11229); experiment: biochemical; format: binding; conditions: read-out: % inhibition (10nM)
[23] = target: β 1 (Homo sapiens, UniProt P08588); experiment: Binding selectivity screening, β 1; conditions: read-out: % inhibition (10nM)
[24] = target: NET (Homo sapiens, UniProt P23975); experiment: Binding selectivity screening, NET; conditions: read-out: % inhibition (10nM)
[25] = target: D4 (Homo sapiens, UniProt P21917); experiment: Binding selectivity screening, D4; conditions: read-out: % inhibition (10nM)
[26] = target: D1 (Homo sapiens, UniProt P21728); experiment: Binding selectivity screening, D1; conditions: read-out: % inhibition (10nM)
[27] = target: 5-HT7 (Homo sapiens, UniProt P34969); experiment: Binding selectivity screening, 5-HT7; conditions: read-out: % inhibition (10nM)
[28] = target: 5-HT1E (Homo sapiens, UniProt P28566); experiment: Binding selectivity screening, 5-HT1E; conditions: read-out: % inhibition (10nM)
[29] = target: M4 (Homo sapiens, UniProt P08173); experiment: biochemical; format: binding; conditions: read-out: % inhibition (10nM)
[30] = target: δ opioid receptor (Homo sapiens, UniProt P41143); experiment: Binding selectivity screening, δ opioid receptor; conditions: read-out: % inhibition (10nM)
[31] = target: β 3 (Homo sapiens, UniProt P13945); experiment: Binding selectivity screening, β 3; conditions: read-out: % inhibition (10nM)
[32] = target: DAT (Homo sapiens, UniProt Q01959); experiment: Binding selectivity screening, DAT; conditions: read-out: % inhibition (10nM)
[33] = target: β 2 (Homo sapiens, UniProt P07550); experiment: Binding selectivity screening, β 2; conditions: read-out: % inhibition (10nM)
[34] = target: SERT (Homo sapiens, UniProt P31645); experiment: Binding selectivity screening, SERT; conditions: read-out: % inhibition (10nM)
Chain of SERT (P31645 whole entry): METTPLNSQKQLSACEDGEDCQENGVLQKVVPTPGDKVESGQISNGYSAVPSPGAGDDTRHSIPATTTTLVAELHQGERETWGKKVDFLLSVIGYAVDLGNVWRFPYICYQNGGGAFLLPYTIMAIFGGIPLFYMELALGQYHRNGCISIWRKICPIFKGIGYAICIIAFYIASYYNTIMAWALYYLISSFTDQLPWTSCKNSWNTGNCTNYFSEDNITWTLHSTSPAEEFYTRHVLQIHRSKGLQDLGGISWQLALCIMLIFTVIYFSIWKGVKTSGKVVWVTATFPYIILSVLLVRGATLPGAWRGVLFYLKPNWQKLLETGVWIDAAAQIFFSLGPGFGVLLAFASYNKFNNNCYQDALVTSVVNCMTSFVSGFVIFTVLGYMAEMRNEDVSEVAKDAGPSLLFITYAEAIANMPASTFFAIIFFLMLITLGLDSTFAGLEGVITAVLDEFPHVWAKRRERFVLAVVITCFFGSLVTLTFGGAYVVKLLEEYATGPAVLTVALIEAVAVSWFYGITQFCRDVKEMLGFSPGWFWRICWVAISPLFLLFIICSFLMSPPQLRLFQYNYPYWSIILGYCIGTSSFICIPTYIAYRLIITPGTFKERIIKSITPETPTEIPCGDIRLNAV

[35] = target: D2 (Homo sapiens, UniProt P14416); experiment: Binding selectivity screening, D2; conditions: read-out: % inhibition (10nM)
[36] = target: M5 (Homo sapiens, UniProt P08912); experiment: biochemical; format: binding; conditions: read-out: % inhibition (10nM)
[37] = target: alpha 1A (Homo sapiens, UniProt P35348); experiment: Binding selectivity screening, alpha 1A; conditions: read-out: % inhibition (10nM)
Chain of alpha 1A (P35348 whole entry): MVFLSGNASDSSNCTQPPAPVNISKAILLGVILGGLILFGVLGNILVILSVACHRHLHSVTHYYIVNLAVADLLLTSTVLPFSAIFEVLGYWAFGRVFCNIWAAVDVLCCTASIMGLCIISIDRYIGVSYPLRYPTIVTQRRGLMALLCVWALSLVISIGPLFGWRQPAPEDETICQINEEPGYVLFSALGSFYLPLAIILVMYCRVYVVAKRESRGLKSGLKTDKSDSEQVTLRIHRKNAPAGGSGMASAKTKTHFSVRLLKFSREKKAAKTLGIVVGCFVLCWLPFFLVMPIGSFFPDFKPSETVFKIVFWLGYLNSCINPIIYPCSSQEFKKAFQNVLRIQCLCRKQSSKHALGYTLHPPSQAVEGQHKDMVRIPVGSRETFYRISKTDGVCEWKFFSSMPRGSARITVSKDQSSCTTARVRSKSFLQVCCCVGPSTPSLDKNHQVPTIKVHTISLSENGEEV

[38] = target: alpha 2C (Homo sapiens, UniProt P18825); experiment: Binding selectivity screening, alpha 2C; conditions: read-out: % inhibition (10nM)
[39] = target: alpha 2B (Homo sapiens, UniProt P35368); experiment: Binding selectivity screening, alpha 2B; conditions: read-out: % inhibition (10nM)
Chain of alpha 2B (Homo sapiens, UniProt P35368) (P35368 whole entry): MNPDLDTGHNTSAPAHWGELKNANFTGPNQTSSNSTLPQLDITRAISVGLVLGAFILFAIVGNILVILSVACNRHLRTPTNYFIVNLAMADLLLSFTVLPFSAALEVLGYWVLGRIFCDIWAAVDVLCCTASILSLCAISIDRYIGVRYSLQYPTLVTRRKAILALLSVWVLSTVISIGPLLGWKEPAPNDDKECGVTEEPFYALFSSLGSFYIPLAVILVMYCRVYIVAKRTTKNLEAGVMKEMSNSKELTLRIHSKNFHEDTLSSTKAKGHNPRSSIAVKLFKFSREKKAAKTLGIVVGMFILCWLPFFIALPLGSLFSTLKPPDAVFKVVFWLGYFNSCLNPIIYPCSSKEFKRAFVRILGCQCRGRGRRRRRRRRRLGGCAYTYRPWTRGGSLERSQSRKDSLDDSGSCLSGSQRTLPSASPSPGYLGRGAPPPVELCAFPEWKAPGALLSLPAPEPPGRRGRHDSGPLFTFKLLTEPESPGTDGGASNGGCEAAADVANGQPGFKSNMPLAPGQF

[40] = system: male Sprague-Dawley rats; conditions: for substitution for BU224 discriminative stimulus: full ≥ 80%, partial ≥ 60% and < 80% training drug-appropriate responding; for antagonism of the discriminative stimulus effects of BU224: 10-min pretreatment, dose ratio 95% CLs included 1
[41] = system: rats discriminating 2-BFI; conditions: ref MacInnes and Handley, 2002, Jordan et al., 1996; cited from earlier work
[42] = system: rats; conditions: rat, in vivo; cited from earlier work
[43] = target: I2 receptors; conditions: cited from earlier work

SMILES: c1ccc(CCC2=NCCN2)cc1 [phenyzoline, 4,5-dihidro-2-(2-phenylethyl)-1H-imidazole]
- inhibition at 0.01 µM [1]: 7.1%
- inhibition at 0.01 µM [2]: 42.7%
- inhibition at 0.01 µM [3]: 14.3%
- inhibition at 0.01 µM [4]: 10.4%
- Ki [5]: > 10000 nM
- inhibition at 0.01 µM [6]: -11.6%
- inhibition at 0.01 µM [7]: 15.2%
- inhibition at 0.01 µM [8]: 4.6%
- inhibition at 0.01 µM [9]: 5.4%
- inhibition at 0.01 µM [10]: -13.3%
- inhibition at 0.01 µM [11]: -4.1%
- inhibition at 0.01 µM [12]: -0.6%
- inhibition at 0.01 µM [13]: -2.6%
- inhibition at 0.01 µM [14]: -10.9%
- inhibition at 0.01 µM [15]: -2%
- inhibition at 0.01 µM [16]: 5%
- substitution for CR4056 discriminative stimulus [17]: fully substituted
- inhibition at 0.01 µM [18]: 38.4%
- Ki [19]: 851 nM
- duration of discriminative stimulus effects ([20]; 32 mg/kg phenyzoline i.p.): 90 min
- effect on response rate ([20]; rat, in vivo): without significantly altering response rate
- inhibition at 0.01 µM [21]: 11.1%
- inhibition at 0.01 µM [22]: -14.1%
- inhibition at 0.01 µM [23]: -10.1%
- inhibition at 0.01 µM [24]: 6.8%
- inhibition at 0.01 µM [25]: 9.1%
- inhibition at 0.01 µM [26]: 0.9%
- inhibition at 0.01 µM [27]: 23.7%
- inhibition at 0.01 µM [28]: -4.2%
- inhibition at 0.01 µM [29]: -0.5%
- inhibition at 0.01 µM [30]: -2.7%
- inhibition at 0.01 µM [31]: -5.5%
- inhibition at 0.01 µM [32]: 43.6%
- inhibition at 0.01 µM [33]: 22.9%
- inhibition at 0.01 µM [34]: 21.9%
- inhibition at 0.01 µM [35]: -7.3%
- inhibition at 0.01 µM [36]: 25.9%
- inhibition at 0.01 µM [37]: 17.3%
- inhibition at 0.01 µM [38]: 29.6%
- inhibition at 0.01 µM [39]: 6.3%

SMILES: CNC1(c2ccccc2Cl)CCCCC1=O (centres unmarked) [ketamine]
- substitution for BU224 discriminative stimulus [40]: partial or less substitution

SMILES: CN1CC[C@]23c4c5ccc(O)c4O[C@H]2[C@@H](O)C=C[C@H]3[C@H]1C5 [morphine]
- substitution for BU224 discriminative stimulus [40]: partial or less substitution
- substitution for phenyzoline discriminative stimulus [20]: partial substitution

SMILES: NCCCCN=C(N)N [agmatine]
- substitution for BU224 discriminative stimulus [40]: partial or less substitution

SMILES: Clc1cccc(Cl)c1N=C1NCCN1 [clonidine]
- substitution for BU224 discriminative stimulus [40]: partial or less substitution
- substitution for phenyzoline discriminative stimulus [20]: partial substitution

SMILES: Cl.c1ccc2nc(C3=NCCN3)ccc2c1 [BU224, 2-(4,5-Dihydroimidazol-2-yl) quinoline hydrochloride]
- duration of discriminative stimulus effects ([40]; 5.6 mg/kg BU224 i.p.): 120 min
- effect on response rate ([40]; rat, in vivo): without significantly altering response rate
- substitution for phenyzoline discriminative stimulus [20]: completely substituted
- substitution for 2-BFI discriminative stimulus [41]: fully substituted
- dose that significantly suppresses food-maintained operant responding [42]: 17.8 mg/kg

SMILES: CCC(=O)C(CC(C)N(C)C)(c1ccccc1)c1ccccc1 (centres unmarked) [methadone]
- substitution for BU224 discriminative stimulus [40]: partial or less substitution

SMILES: COc1cccc([C@H](O)C2CCN(CCc3ccc(F)cc3)CC2)c1OC [MDL100907, (R)-(2,3-dimethoxyphenyl)-[1-[2-(4-fluorophenyl)ethyl]-4-piperidyl] methanol]
- antagonism of the discriminative stimulus effects of BU224 [40]: failed to antagonize
- antagonism of the discriminative stimulus effects of phenyzoline [20]: failed to antagonize

SMILES: Cc1nccc2c1[nH]c1ccccc12 [harmane]
- substitution for BU224 discriminative stimulus [40]: fully substitutes
- substitution for CR4056 discriminative stimulus [17]: does not substitute
- substitution for phenyzoline discriminative stimulus [20]: only partially substitutes
- substitution for 2-BFI discriminative stimulus [41]: fully substitute

SMILES: c1ccc(-c2ncc3cc(-n4ccnc4)ccc3n2)cc1 [CR4056, 2-phenyl-6-(1H-imidazol-1-yl) quinazoline]
- IC50 ([43]; read-out: IC50 at I2 receptor, ref Ferrari et al., 2011): 596 nM

SMILES: Cl.c1ccc2oc(C3=NCCN3)cc2c1 [2-BFI, 2-(2-Benzofuranyl)-2-imidazoline hydrochloride]
- substitution for BU224 discriminative stimulus [40]: fully substituted
- substitution for phenyzoline discriminative stimulus [20]: only partially substituted
- dose that significantly suppresses food-maintained operant responding [42]: 10 mg/kg

SMILES: O=C1CC[C@@]2(O)[C@H]3Cc4ccc(O)c5c4[C@@]2(CCN3CC2CC2)[C@H]1O5 [naltrexone]
- antagonism of the discriminative stimulus effects of BU224 [40]: failed to antagonize
- antagonism of the discriminative stimulus effects of phenyzoline [20]: failed to antagonize

SMILES: CN[C@@H](C)Cc1ccccc1 [methamphetamine]
- substitution for BU224 discriminative stimulus [40]: partial or less substitution
- substitution for phenyzoline discriminative stimulus [20]: partial substitution

SMILES: C(=C\c1ccccc1)/C1=NCCN1 [tracizoline, 2-styryl-4,5-dihydro-lH-imidazole]
- selectivity for I2 receptors over I1 receptors ([43]; ref Pigini et al., 1997): 10 fold
- selectivity for I2 receptors over α2 adrenoceptors ([43]; ref Pigini et al., 1997): 7431 fold

SMILES: O=C(CCCN1CCC(O)(c2ccc(Cl)cc2)CC1)c1ccc(F)cc1 [haloperidol]
- antagonism of the discriminative stimulus effects of BU224 [40]: failed to antagonize
- antagonism of the discriminative stimulus effects of phenyzoline [20]: failed to antagonize

SMILES: Clc1cccc2c1CN(C1=NCCN1)C2 [RS45041, 4-chloro-2-(imidazolin-2-yl) isoindoline]
- BU224-appropriate (drug-associated lever) responding, maximum ([40]; substitution test in rats discriminating 5.6 mg/kg BU224): > 80%
- selectivity for I2 receptors over adrenoceptors, dopamine, 5-HT, muscarinic receptors and dihydropyridine binding sites ([43]; ref Brown et al., 1995): > 1000 fold
- phenyzoline-appropriate (drug-associated lever) responding, maximum ([20]; substitution test in rats discriminating 32 mg/kg phenyzoline): > 80%

SMILES: c1ccc2c(c1)OCC(C1=NCCN1)O2 (centres unmarked) [idazoxan]
- substitution for BU224 discriminative stimulus [40]: fully substituted
- substitution for phenyzoline discriminative stimulus [20]: fully substituted
- substitution for 2-BFI discriminative stimulus [41]: fully substitutes

SMILES: COc1ccc2c3c([nH]c2c1)C(C)=NCC3 [harmaline]
- substitution for 2-BFI discriminative stimulus [41]: fully substitute
